# In EP0181129B1, “N6-substituted deoxyribose analogs of adenosines” (WARNER-LAMBERT COMPANY, priority 1984, dated 1986):
# “And” between values parts separate entries of the source, which are not always exact repeats. Equal values may be shown once.
# Key:
# adenosine A2 receptor = molecular target: T1, adenosine A2 receptor (Rattus norvegicus, UniProt P30543); assay: Adenosine Receptor Binding - A2 Receptor Affinity (RBA2), [3H]NECA displacement; settings: 4 nM [3H]NECA with 50 nM N6-cyclopentyladenosine, rat striatal membranes, 60 minutes at 25°C; read-out: Receptor Binding RBA—2
# T1 construct: Brains were thawed and then kept on ice while the striata were dissected out; tissue Pel-Freez (Rogers, Arkansas); host or cells: rat striatum, membranes
# T1 sequence (P30543 whole entry): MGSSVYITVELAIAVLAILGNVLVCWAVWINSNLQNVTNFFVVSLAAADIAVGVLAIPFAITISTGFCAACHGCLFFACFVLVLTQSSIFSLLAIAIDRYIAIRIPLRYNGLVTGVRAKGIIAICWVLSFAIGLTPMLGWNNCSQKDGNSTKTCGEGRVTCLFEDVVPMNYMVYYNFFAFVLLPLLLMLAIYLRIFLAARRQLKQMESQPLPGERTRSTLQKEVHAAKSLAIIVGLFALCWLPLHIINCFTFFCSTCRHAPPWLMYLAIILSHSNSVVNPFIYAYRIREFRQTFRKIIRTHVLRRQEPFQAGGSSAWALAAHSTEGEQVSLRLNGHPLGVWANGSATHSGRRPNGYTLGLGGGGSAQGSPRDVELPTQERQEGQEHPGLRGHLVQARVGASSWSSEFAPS
# Method: Brains from 200-500 g mixed sex Sprague-Dawley rats were purchased from Pel-Freez (Rogers, Arkansas). Fresh brains from male Long-Evans hooded rats (Blue Spruce Farms, Altamont, NY) gave essentially indentical results. Brains were thawed and then kept on ice while the striata were dissected out. Striata were disrupted in 10 vol of ice-cold 50 mM Tris.HCI (pH 7.7 at 25°C, pH 8.26 at 5°C) (Tris) for 30 seconds in a Polytron PT―10 (Brinkmann) at setting 5. The suspension was centrifuged at 50,000 xg for ten minutes, the supernatant discarded, the pellet resuspended in 10 vol ice-cold Tris as above, recentrifuged, resuspended at 1 g/5 ml, and stored in plastic vials at -70°C (stable for at least six months). When needed, tissue was thawed at room temperature, disrupted in a Polytron, and kept on ice until used.
# All incubations were for 60 minutes at 25°C in 12x75 mm glass tubes containing 1 ml Tris with 5 mg original tissue weight of rat weight of rat striatal membranes, 4 nM [^3H]-N-ethyl adenosine-5'-carboxamide ([^3H]NECA), 50 nM N^6-cyclopentyladenosine (to eliminate A1 receptor binding), 10 mM MgCl2, 0.1 units/ml, of adenosine deaminase and 1% dimethylsulfoxide. N^6-Cyclopentyladenosine was dissolved at 10 mM in 0.02 N HCI and diluted in Tris. Stock solutions and dilutions of N^6-cyclopentyladenosine could be stored at -20°C for several months. Test compounds were dissolved at 10 mM in dimethylsulfoxide or the same day as the experiment, and diluted in dimethylsulfoxide to 100x the final incubation concentration. Control incubations received an equal volume (10 µl) of dimethylsulfoxide; the resulting concentration of dimethylsulfoxide had no effect on binding. [^3H]NECA was diluted to 40 nM in Tris. The membrane suspension (5 mg/0.79 ml) contained sufficient MgCl2 and adenosine deaminase to give 10 mM and 0.1 units/ml, respectively, final concentration in the incubation. […] After all additions, the rack of tubes was vortexed, and the tubes were then incubated for 60 min at 25°C in a shaking water bath. The rack of tubes was vortexed an additonal time halfway through the incubation.
# Incubations were terminated by filtration through 2.4 cm GF/B filters under reduced pressure. Each tube was filtered as follows: the contents of the tube were poured onto the filter, 4 ml of ice-cold Tris were added to the tube and the contents poured onto the filter, and the filter was washed twice with 4 ml of ice-cold Tris. The filtration was complete in about twelve seconds. Filters were put in scintillation vials, 8 ml of Formula 947 scintillation fluid added, and the vials left overnight, shaken, and counted in a liquid scintillation counter at 40% efficiency.
# Nonspecific binding was defined as binding in the presence of […] N^6-cyclopentyladenosine, and specific binding was defined as total binding minus nonspecific binding. The IC50 was calculated by weighted nonlinear least squares curve-fitting to the mass-action equation. [formula] • where Y is cpm bound T is cpm total binding without drug S is cpm specific binding without drug D is the concentration of drug • and K is the IC50 of the drug Weighting factors were calculated under the assumption that the standard deviation was proportional to the predicted value of Y. Nonspecific binding was treated as a very large (infinite) concentration of drug in the computer analysis.
# Swiss-Webster male mice = assay: Mouse Activity and Screen Test Procedure (MAST); format: in vivo; settings: for Inhibition of Mouse Locomotor Activity: one hour prior to testing; for Screen Test Failure: percent of mice falling off the screen
# Description: The compounds of the invention are new chemical substances which are useful as pharmaceutical agents for the treatment of psychoses. The antipsychotic activity of representative compounds of the invention was established by the Mouse Activity and Screen Test Procedure (MAST) described below.
# Nine unfasted Swiss-Webster male mice weighing 20-30 g are equally divided into three groups for each drug dose to be tested. That is, data for each dose level was generated by three separate groups of three mice each.
# A minimum of three dose levels (10, 30, and 100 mg/kg) are tested for each drug. Treatments are administered intraperitoneally one hour prior to testing. All dosages are calculated as parent compound and given in volumes of 10 ml/kg. Compounds are dissolved or suspended in 0.2% Methocel. Control animals are injected with Methocel.
# A two part testing procedure is started one hour post injection. First, the screen test (ST) is performed (see Pharmac. Biochem. Behav. 6, 351-353, 1977). Briefly this test consists of placing mice on individual wire screens which are then rotated 180 degrees at the start of a 60 second observation period. The number of mice falling off the inverted screen is recorded.
# Immediately following the screen test, the final phase of testing is initiated by placing each group of three mice in one actophotometer (Life Sciences, 22,1067-1076,1978). The actophotometer consists of a cylindrical chamber whose center is occupied by another cylinder which contains the illumination for six photocells located on the perimeter of the chamber. Six light-beam interruptions equal one count. Locomotor activity is recorded by computer at ten minutes intervals for 60 minutes.
# The data obtained from the screen test are expressed as percent of mice falling off the screen. Data derived from locomotor activity of drug treated mice are compared to the activity of vehicle treated animals and are expressed as percent inhibition of spontaneous locomotion. All percentages reported for inhibition of locomotion (LI) are based upon data accumulated for one hour. Both phases of testing are graded: A=60-100%; C=31-59%; and N=0-30%. An overall dose rating is obtained by the following criteria:
# LAD refers to the lowest dose at which an A rating is achieved. […] Utilizing this procedure, an overall dose rating of A was obtained for the noted compound at the indicated dose. The compounds are identified in the Examples.
# [1] = Dose 10 mg/kg intraperitoneally
# [2] = Dose 30 mg/kg intraperitoneally
# [3] = Dose 0.3 mg/kg intraperitoneally
Structure (SMILES),IC50 (adenosine A2 receptor) [µM],Inhibition of Mouse Locomotor Activity (Swiss-Webster male mice; Dose 3 mg/kg intraperitoneally) [%],Screen Test Failure (Swiss-Webster male mice; Dose 3 mg/kg intraperitoneally) [%],Inhibition of Mouse Locomotor Activity (Swiss-Webster male mice; [1]) [%],Screen Test Failure (Swiss-Webster male mice; [1]) [%],Inhibition of Mouse Locomotor Activity (Swiss-Webster male mice; [2]) [%],Screen Test Failure (Swiss-Webster male mice; [2]) [%],Inhibition of Mouse Locomotor Activity (Swiss-Webster male mice; [3]) [%],Screen Test Failure (Swiss-Webster male mice; [3]) [%],"Inhibition of Mouse Locomotor Activity (Swiss-Webster male mice; Dose 1 mg/kg intraperitoneally, 1 mg/kg)",Screen Test Failure (Swiss-Webster male mice; Dose 1 mg/kg intraperitoneally) [%]
"C[C@H]1O[C@@H](n2cnc3c(NC4CCCc5ccccc54)ncnc32)[C@H](O)[C@@H]1O (stereo partly shown) [Example 19, N^6-1-Tetralinyl-5' -deoxyadenosine]",71.3,36,11,55,0,83,0,–,–,–,–
"C[C@H]1O[C@@H](n2cnc3c(NCc4cccc5ccccc45)ncnc32)[C@H](O)[C@@H]1O [Example 20, N^6-α-Naphthylmethyl-5' -deoxyadenosine]",0.323,−1,0,49,0,81,0,–,–,–,–
"O[C@@H]1[C@H](O)[C@@H](CCl)O[C@H]1n1cnc2c(NC3CCc4ccccc43)ncnc21 (stereo partly drawn) [Example 23, (R)-N^6(1-Indanyl)-5'-deoxy-5'-chloroadenosine]",3.04,48,0,76,0,81,0,−2,0,0% and 7%,0
